The source made the active and inactive calls. The calls are words filed in the database; no cut-off is given here.
Experiments:
MDA-MB-231 = assay: Anticancer activity against human MDA-MB-231 cells assessed as growth inhibition incubated for 48 hrs by MTT assay; type: functional, cell-based; conditions: MDA-MB-231, 48 h
HepG2 [1] = assay: Anticancer activity against human HepG2 cells assessed as growth inhibition incubated for 48 hrs by MTT assay; type: functional, cell-based; conditions: HepG2, 48 h
HeLa = assay: Anticancer activity against human HeLa cells assessed as growth inhibition incubated for 48 hrs by MTT assay; type: functional, cell-based
A549 = assay: Anticancer activity against human A549 cells assessed as growth inhibition incubated for 48 hrs by MTT assay; type: functional, cell-based; conditions: A549, 48 h
U-87 MG = assay: Anticancer activity against human U-87 MG cells assessed as growth inhibition incubated for 48 hrs by MTT assay; type: functional, cell-based, U-87MG ATCC
SK-MEL-28 = assay: Anticancer activity against human SK-MEL-28 cells assessed as growth inhibition incubated for 48 hrs by MTT assay; type: functional, cell-based; conditions: SK-MEL-28, 48 h
DU-145 = assay: Anticancer activity against human DU-145 cells assessed as growth inhibition incubated for 48 hrs by MTT assay; type: functional, cell-based; conditions: DU-145, 48 h
HEK293 = assay: Anticancer activity against human HEK293 cells assessed as growth inhibition incubated for 48 hrs by MTT assay; type: cell-based; conditions: HEK293, 48 h
NIH3T3 = assay: Anticancer activity against mouse NIH3T3 cells assessed as growth inhibition incubated for 48 hrs by MTT assay; type: cell-based; conditions: NIH3T3, 48 h
HepG2 [2] = assay: Cell cycle arrest in human HepG2 cells assessed as accumulation at SubG1 phase at 5 uM (reference value: 7.13%); type: functional
HepG2 [3] = assay: Cell cycle arrest in human HepG2 cells assessed as accumulation at SubG1 phase at 10 uM (reference value: 7.13%); type: functional
HepG2 [4] = assay: Cell cycle arrest in human HepG2 cells assessed as accumulation at G0/G1 phase at 5 uM (reference value: 92.33%); type: functional
HepG2 [5] = assay: Cell cycle arrest in human HepG2 cells assessed as accumulation at G0/G1 phase at 10 uM (reference value: 92.33%); type: functional
HepG2 [6] = assay: Cell cycle arrest in human HepG2 cells assessed as accumulation at S phase at 5 uM (reference value: 4.66%); type: functional
HepG2 [7] = assay: Cell cycle arrest in human HepG2 cells assessed as accumulation at S phase at 10 uM (reference value: 4.66%); type: functional
HepG2 [8] = assay: Cell cycle arrest in human HepG2 cells assessed as accumulation at G2/M phase at 5 uM (reference value: 3.72%); type: functional
HepG2 [9] = assay: Cell cycle arrest in human HepG2 cells assessed as accumulation at G2/M phase at 10 uM (reference value: 3.72%); type: functional
HepG2 [10] = assay: Induction of apoptosis in human HepG2 cells assessed as nuclear condensation at 5 to 10 uM incubated for 48 hrs by Hoechst staining based assay relative to control; type: functional, cell-based; conditions: dose 5-10 µM
HepG2 [11] = assay: Induction of apoptosis in human HepG2 cells assessed as decrease in mitochondrial membrane potential at 5 to 10 uM incubated for 48 hrs by JC-1 staining based assay relative to control; type: functional, cell-based; conditions: dose 5-10 µM
HepG2 [12] = assay: Induction of apoptosis in human HepG2 cells assessed as live cells at 5 uM incubated for 48 hrs by annexin V-FITC/propidium iodide (AV/PI) dual staining assay (reference value: 91.01%); type: functional
HepG2 [13] = assay: Induction of apoptosis in human HepG2 cells assessed as early apoptotic cells at 5 uM incubated for 48 hrs by annexin V-FITC/propidium iodide (AV/PI) dual staining assay (reference value: 3.87%); type: functional
HepG2 [14] = assay: Induction of apoptosis in human HepG2 cells assessed as late apoptotic cells at 5 uM incubated for 48 hrs by annexin V-FITC/propidium iodide (AV/PI) dual staining assay (reference value: 4.07%); type: functional
HepG2 [15] = assay: Induction of apoptosis in human HepG2 cells assessed as necrotic cells at 5 uM incubated for 48 hrs by annexin V-FITC/propidium iodide (AV/PI) dual staining assay (reference value: 1.06%); type: functional
HepG2 [16] = assay: Induction of apoptosis in human HepG2 cells assessed as live cells at 10 uM incubated for 48 hrs by annexin V-FITC/propidium iodide (AV/PI) dual staining assay (reference value: 91.01%); type: functional
HepG2 [17] = assay: Induction of apoptosis in human HepG2 cells assessed as early apoptotic cells at 10 uM incubated for 48 hrs by annexin V-FITC/propidium iodide (AV/PI) dual staining assay (reference value: 3.87%); type: functional
HepG2 [18] = assay: Induction of apoptosis in human HepG2 cells assessed as late apoptotic cells at 10 uM incubated for 48 hrs by annexin V-FITC/propidium iodide (AV/PI) dual staining assay (reference value: 4.07%); type: functional
HepG2 [19] = assay: Induction of apoptosis in human HepG2 cells assessed as necrotic cells at 10 uM incubated for 48 hrs by annexin V-FITC/propidium iodide (AV/PI) dual staining assay (reference value: 1.06%); type: functional

Row | SMILES | IC50 (MDA-MB-231) | IC50 (HepG2 [1]) | IC50 (HeLa) | IC50 (A549) | IC50 (U-87 MG) | IC50 (SK-MEL-28) | IC50 (DU-145) | IC50 (HEK293) | IC50 (NIH3T3) | also measured
1 | CCc1ccc(-c2nc3ccccn3c2Sc2ccccc2)cc1 | > 100 µM | 50.2 µM | 52.1 µM | 56.2 µM | 61.7 µM | > 100 µM | 84.5 µM | > 100 µM | > 100 µM | 
2 | c1ccc(Sc2c(-c3ccccc3)nc3sc4ccccc4n23)cc1 | 54.9 µM | 22.3 µM | 34.2 µM | 28.1 µM | 62.6 µM | 63.2 µM | 45 µM | > 100 µM | > 100 µM | 
3 | N#Cc1ccc(-c2nc3ccccn3c2Sc2ccccc2)cc1 | 17.8 µM | 15.7 µM | 64.2 µM | 35.2 µM | 65.5 µM | 67.5 µM | 76.5 µM | > 100 µM | > 100 µM | 
4 | Clc1ccc(Sc2c(-c3cccs3)nc3ccccn23)cc1 | 73.1 µM | 59.3 µM | 74.1 µM | 69.8 µM | > 100 µM | 77.3 µM | 92.3 µM | 93 µM | 86.1 µM | 
5 | c1ccc(Sc2c(-c3ccccc3)nc3ccc(-c4ccccc4)cn23)cc1 | 76.7 µM | 47.8 µM | 72.6 µM | 54.2 µM | > 100 µM | > 100 µM | 71.7 µM | > 100 µM | > 100 µM | 
6 | CS(=O)(=O)c1ccc(-c2nc3ccccn3c2Sc2cccc3ccccc23)cc1 | 24.1 µM | 13.6 µM | 34.6 µM | 19.6 µM | 56.2 µM | 67.3 µM | 20.8 µM | 83.2 µM | 86.4 µM | 
7 | Cc1ccc(-c2nc3ccc(C)cn3c2Sc2ccccc2)cc1 | 38 µM | 14.6 µM | 65.2 µM | 23.8 µM | 82.1 µM | 95.7 µM | 57.7 µM | > 100 µM | > 100 µM | 
8 | c1ccc(Sc2c(-c3cccs3)nc3ccccn23)cc1 | 69.2 µM | 17.1 µM | 19.9 µM | 16.9 µM | > 100 µM | 85.3 µM | 24.1 µM | > 100 µM | > 100 µM | 
9 | Cc1ccc(-c2nc3ccccn3c2Sc2ccccc2)cc1 | > 100 µM | 67.9 µM | 86.7 µM | 94.3 µM | > 100 µM | > 100 µM | 83.3 µM | > 100 µM | > 100 µM | 
10 | COc1cccc2c1C(=O)c1c(O)c3c(c(O)c1C2=O)C[C@@](O)(C(=O)CO)C[C@@H]3O[C@H]1C[C@H](N)[C@H](O)[C@H](C)O1 [DOXORUBICIN] | 1.6 µM | 1.8 µM | 2.1 µM |  | 1.7 µM | 1.8 µM | 1.4 µM |  |  | 
11 | Clc1ccc(Sc2c(-c3ccccc3)nc3ccccn23)cc1 | 57.6 µM | 16.9 µM | 36.6 µM | 27.7 µM | 62.8 µM | 74 µM | 76.7 µM | 91.4 µM | 88.7 µM | 
12 | Cc1ccc2nc(-c3ccc(Cl)cc3)c(Sc3ccccc3)n2c1 | 94.5 µM | 63.1 µM | 79.9 µM | 71.5 µM | > 100 µM | 81.5 µM | 95.1 µM | > 100 µM | > 100 µM | 
13 | CSc1ccc(-c2nc3ccccn3c2Sc2ccccc2)cc1 | 23.5 µM | 7.6 µM | 30 µM | 13.6 µM | 26.9 µM | 67.7 µM | 52.1 µM | > 100 µM | > 100 µM | Activity (HepG2 [2]): 11.43%; Activity (HepG2 [3]): 1.57%; Activity (HepG2 [4]): 83.03%; Activity (HepG2 [5]): 63.48%; Activity (HepG2 [6]): 0.56%; Activity (HepG2 [7]): 1.07%; Activity (HepG2 [8]): 10.85%; Activity (HepG2 [9]): 34.97%; Activity (HepG2 [10]): Active; Activity (HepG2 [11]): Active; Activity (HepG2 [12]): 65.61%; Activity (HepG2 [13]): 18.94%; Activity (HepG2 [14]): 15.17%; Activity (HepG2 [15]): 0.28%; Activity (HepG2 [16]): 48.22%; Activity (HepG2 [17]): 27.63%; Activity (HepG2 [18]): 23.93%; Activity (HepG2 [19]): 0.22%
14 | Clc1ccc(-c2nc3ccccn3c2Sc2ccccc2)cc1 | 24.5 µM | 13.9 µM | 62 µM | 22 µM | 30.2 µM | 73.1 µM | 30.7 µM | > 100 µM | > 100 µM | 
15 | Clc1ccc(-c2nc3sc4ccccc4n3c2Sc2ccccc2)cc1 | 72.1 µM | 57.8 µM | 64.1 µM | 75.1 µM | > 100 µM | > 100 µM | 78 µM | > 100 µM | > 100 µM | 
16 | C(=C\c1nc2ccccn2c1Sc1ccccc1)/c1ccccc1 | 25.3 µM | 8.8 µM | 35.5 µM | 16.3 µM | 59.2 µM | 65.4 µM | 22 µM | > 100 µM | > 100 µM | Activity (HepG2 [2]): 7.64%; Activity (HepG2 [3]): 8.65%; Activity (HepG2 [4]): 86.58%; Activity (HepG2 [5]): 65.4%; Activity (HepG2 [6]): 0.52%; Activity (HepG2 [7]): 0.69%; Activity (HepG2 [8]): 9.73%; Activity (HepG2 [9]): 30.69%; Activity (HepG2 [10]): Active; Activity (HepG2 [11]): Active; Activity (HepG2 [12]): 72.25%; Activity (HepG2 [13]): 16.1%; Activity (HepG2 [14]): 11.31%; Activity (HepG2 [15]): 0.34%; Activity (HepG2 [16]): 51.78%; Activity (HepG2 [17]): 25.51%; Activity (HepG2 [18]): 22.5%; Activity (HepG2 [19]): 0.2%
17 | CS(=O)(=O)c1ccc(-c2nc3ccccn3c2Sc2ccccc2)cc1 | 72.7 µM | 13.2 µM | 70.6 µM | 23.2 µM | 77.2 µM | 61.9 µM | 67.8 µM | > 100 µM | > 100 µM | 
18 | COc1ccc(-c2nc3ccccn3c2Sc2ccccc2)cc1 | > 100 µM | 54.2 µM | > 100 µM | 58.4 µM | > 100 µM | 83.9 µM | 76.8 µM | > 100 µM | 91.7 µM | 
19 | Clc1ccc2nc(-c3ccccc3)c(Sc3ccccc3)n2c1 | 55.8 µM | 15.7 µM | 29.3 µM | 24.4 µM | > 100 µM | 76.9 µM | 56.3 µM | > 100 µM | > 100 µM | 
20 | c1ccc(Sc2c(-c3ccsc3)nc3ccccn23)cc1 | 62.8 µM | 49.6 µM | 76 µM | 72.9 µM | 58.6 µM | 69.3 µM | 85.9 µM | 91.7 µM | 94.1 µM | 
21 | COc1cccc(OC)c1-c1nc2ccccn2c1Sc1ccccc1 | 75.6 µM | 19.5 µM | 32.2 µM | 21.5 µM | > 100 µM | > 100 µM | 22.4 µM | > 100 µM | > 100 µM | 
